Measurements taken from US20260097022A1, “COMPOUNDS AND USES THEREOF” (Integrated Biosciences, Inc., priority 2023, published 2026).
Counter-ions that a name gives are not always drawn.

System: not given
Experiment: not given
Details: cited from earlier work

| Compound | bioavailability |
| --- | --- |
| O=c1c(O)c(-c2ccc(O)c(O)c2)oc2cc(O)ccc12 [fisetin] | limited bioavailability |

System: primary human T-cells
Experiment: Cytotoxicity to T-cells in vitro
Type: cell-based
Details: at about 0.1 μM

| Compound | T-cell death |
| --- | --- |
| CC1(C)CCC(CN2CCN(c3ccc(C(=O)NS(=O)(=O)c4ccc(NCC5CCOCC5)c([N+](=O)[O-])c4)c(Oc4cnc5[nH]ccc5c4)c3)CC2)=C(c2ccc(Cl)cc2)C1 [ABT-199] | substantial cell death |

Same assay, conditions: primary human T-cells; read-out: T-cell cytotoxicity IC50

| Compound | IC50 |
| --- | --- |
| CC1(C)CCC(CN2CCN(c3ccc(C(=O)NS(=O)(=O)c4ccc(NCC5CCOCC5)c([N+](=O)[O-])c4)c(Oc4cnc5[nH]ccc5c4)c3)CC2)=C(c2ccc(Cl)cc2)C1 [ABT-199] | ~1000 nM |

System: etoposide-treated IMR-90 cells
Experiment: Etoposide-induced senescence model, resazurin cell viability (screen and dose-response)
Type: cell-based, human
Details: 1 μM, 3 days
Method in brief: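 IMR-90 fibroblasts made senescent with 50 μM etoposide for 2 days, then 4 days recovery before plating. Compounds at 10 μM or 1 μM final (screen) or three-fold dilutions (1% DMSO) for 3 days, then 0.15 mM resazurin 1 day, fluorescence 550/590 nm. Viability expressed as fraction of untreated controls; biological duplicates.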

| Compound | senolytic activity in screen |
| --- | --- |
| CN(C)CCCN1c2ccccc2CCc2ccccc21 [imipramine hydrochloride, reference compound] | active |
| Cc1noc(NS(=O)(=O)c2ccc(N)cc2)c1C [sulfisoxazole, reference compound] | active |

Same assay, conditions: 10 μM, 3 days; active: control viability >0.5, Snc/control ratio <0.7

| Compound | senolytic activity in screen |
| --- | --- |
| C[C@@H]1O[C@@H](O[C@H]2C[C@@H](O)[C@]3(CO)[C@H]4[C@H](O)C[C@]5(C)[C@@H](C6=CC(=O)OC6)CC[C@]5(O)[C@@H]4CC[C@]3(O)C2)[C@H](O)[C@H](O)[C@H]1O [ouabain, reference compound] | active |

Same assay, conditions: etoposide-induced senescence model; ratio of IC50 values between etoposide- and DMSO-treated IMR-90 fibroblasts

| Compound | Therapeutic Index (TI) |
| --- | --- |
| Cc1cccc(NC(=O)CSc2nc3ccc(NC(=O)c4cccc(C)c4)cc3s2)c1 [compound 136] | ++ (compounds with a TI of 1 to 5 were labelled as ++) |
| O=C(CSc1nc2ccc(NC(=O)c3ccccc3)cc2s1)Nc1ccc(Br)cc1 [compound 137] | ++ (compounds with a TI of 1 to 5 were labelled as ++) |
| CC(=O)c1ccc(NC(=O)CSc2nc3ccc(NC(=O)c4cccc(C)c4)cc3s2)cc1 [compound 138] | ++ (compounds with a TI of 1 to 5 were labelled as ++) |
| Cc1cc(C)c(NC(=O)C(C)Sc2nc3ccc(NC(=O)c4ccccc4)cc3s2)c(C)c1 (stereo not shown) [compound 139] | ++ (compounds with a TI of 1 to 5 were labelled as ++) |
| O=C(CSc1nc2ccc(NC(=O)c3ccccc3)cc2s1)Nc1ccc(F)cc1 [compound 140] | ++ (compounds with a TI of 1 to 5 were labelled as ++) |
| Cc1ccc(NC(=O)CSc2nc3ccc(NC(=O)c4ccccc4C)cc3s2)cc1 [compound 141] | ++ (compounds with a TI of 1 to 5 were labelled as ++) |
| O=C(CSc1nc2ccc(NC(=O)c3ccccc3)cc2s1)Nc1ccccc1 [compound 142] | + (Compounds with a TI of <1 were labelled as +) |
| Cc1ccc(NC(=O)CSc2nc3ccc(NC(=O)c4ccccc4F)cc3s2)cc1Cl [compound 143] | + (Compounds with a TI of <1 were labelled as +) |
| Cc1cc(C)c(NC(=O)C(C)Sc2nc3ccc(NC(=O)c4ccccc4C)cc3s2)c(C)c1 (stereo not shown) [compound 144] | + (Compounds with a TI of <1 were labelled as +) |
| Cc1ccc(NC(=O)CSc2nc3ccc(NC(=O)c4ccc(C)cc4)cc3s2)cc1 [compound 145] | + (Compounds with a TI of <1 were labelled as +) |
| CN(C(=O)CSc1nc2ccc(NC(=O)c3ccccc3)cc2s1)c1ccccc1 [compound 146] | + (Compounds with a TI of <1 were labelled as +) |
| COc1ccccc1C(=O)Nc1ccc2nc(SCC(=O)Nc3cc(C)cc(C)c3)sc2c1 [compound 147] | + (Compounds with a TI of <1 were labelled as +) |
| CCCCOc1ccc(NC(=O)CSc2nc3ccc(NC(=O)c4ccccc4Cl)cc3s2)cc1 [compound 148] | + (Compounds with a TI of <1 were labelled as +) |
| CCCCCCCCCCOc1ccc(C(=O)Nc2ccc3nc(SCC(=O)Nc4ccccc4)sc3c2)cc1 [compound 149] | + (Compounds with a TI of <1 were labelled as +) |
| Cc1cccc(NC(=O)CSc2nc3ccc(NC(=O)c4ccccc4)cc3s2)c1C [compound 150] | + (Compounds with a TI of <1 were labelled as +) |
| Cc1ccccc1C(=O)Nc1ccc2nc(SCC(=O)Nc3ccc(C(C)C)cc3)sc2c1 [compound 151] | + (Compounds with a TI of <1 were labelled as +) |
| Cc1ccccc1NC(=O)CSc1nc2ccc(NC(=O)c3ccccc3C)cc2s1 [compound 152] | + (Compounds with a TI of <1 were labelled as +) |
| COc1cccc(NC(=O)CSc2nc3ccc(NC(=O)c4ccccc4)cc3s2)c1 [compound 153] | + (Compounds with a TI of <1 were labelled as +) |
| CC(=O)c1ccc(NC(=O)CSc2nc3ccc(NC(=O)c4ccc(C)cc4)cc3s2)cc1 [compound 154] | + (Compounds with a TI of <1 were labelled as +) |
| COc1ccccc1C(=O)Nc1ccc2nc(SCC(=O)Nc3ccc(C(C)C)cc3)sc2c1 [compound 155] | + (Compounds with a TI of <1 were labelled as +) |

| Compound | Therapeutic Index (TI) |
| --- | --- |
| COc1ccc(C(=O)Nc2ccc3nc(SCC(=O)N(C)c4ccccc4)sc3c2)cc1 [compound 156] | + (Compounds with a TI of <1 were labelled as +) |
| CC(=O)c1ccc(NC(=O)CSc2nc3ccc(NC(=O)c4ccccc4)cc3s2)cc1 [compound 157] | + (Compounds with a TI of <1 were labelled as +) |
| COc1cccc(NC(=O)CSc2nc3ccc(NC(=O)c4ccccc4C)cc3s2)c1 [compound 158] | + (Compounds with a TI of <1 were labelled as +) |
| Cc1cccc(NC(=O)CSc2nc3ccc(NC(=O)c4ccccc4C)cc3s2)c1 [compound 159] | + (Compounds with a TI of <1 were labelled as +) |
| COc1ccccc1C(=O)Nc1ccc2nc(SCC(=O)Nc3cc(Cl)ccc3C)sc2c1 [compound 160] | + (Compounds with a TI of <1 were labelled as +) |
| COc1ccc(CNC(=O)CSc2nc3ccc(NC(=O)c4ccccc4C)cc3s2)cc1 [compound 161] | + (Compounds with a TI of <1 were labelled as +) |
| COc1ccc(C(=O)Nc2ccc3nc(SCC(=O)N4CCOCC4)sc3c2)cc1OC [compound 162] | + (Compounds with a TI of <1 were labelled as +) |
| COc1ccccc1NC(=O)CSc1nc2ccc(NC(=O)c3ccccc3C)cc2s1 [compound 163] | + (Compounds with a TI of <1 were labelled as +) |
| CC(=O)c1ccc(NC(=O)CSc2nc3ccc(NC(=O)c4ccccc4C)cc3s2)cc1 [compound 164] | + (Compounds with a TI of <1 were labelled as +) |
| COc1cccc(C(=O)Nc2ccc3nc(SCC(=O)Nc4ccccc4C)sc3c2)c1 [compound 165] | + (Compounds with a TI of <1 were labelled as +) |
| CCOc1ccc(NC(=O)CSc2nc3ccc(NC(=O)c4ccccc4)cc3s2)cc1 [compound 166] | + (Compounds with a TI of <1 were labelled as +) |
| COc1ccccc1NC(=O)CSc1nc2ccc(NC(=O)c3ccccc3)cc2s1 [compound 167] | + (Compounds with a TI of <1 were labelled as +) |
| COc1ccccc1C(=O)Nc1ccc2nc(SCC(=O)Nc3ccc(C)cc3C)sc2c1 [compound 168] | + (Compounds with a TI of <1 were labelled as +) |
| COC(=O)c1ccc(NC(=O)CSc2nc3ccc(NC(=O)c4ccc(C)cc4)cc3s2)cc1 [compound 169] | + (Compounds with a TI of <1 were labelled as +) |
| COc1ccccc1C(=O)Nc1ccc2nc(SCC(=O)Nc3ccccc3Cl)sc2c1 [compound 170] | + (Compounds with a TI of <1 were labelled as +) |
| O=C(CSc1nc2ccc(NC(=O)c3ccc(CO)c(F)c3)cc2s1)Nc1ccc(F)cc1 [compound 171] | +++ (compounds with a TI of >5 were labeled as +++) |
| COc1ccc(C(=O)Nc2ccc3nc(SCC(=O)Nc4ccccc4)sc3c2)c(F)c1 [compound 172] | +++ (compounds with a TI of >5 were labeled as +++) |
| CS(=O)(=O)c1ccc(C(=O)Nc2ccc3nc(SCC(=O)Nc4cccc(S(N)(=O)=O)c4)sc3c2)cc1F [compound 173] | ++ (compounds with a TI of 1 to 5 were labelled as ++) |
| CS(=O)(=O)c1cccc(C(=O)Nc2ccc3nc(SCC(=O)Nc4ccc(F)cc4)sc3c2)c1 [compound 174] | +++ (compounds with a TI of >5 were labeled as +++) |

System: human red blood cells
Experiment: Hemolysis assay
Type: cell-based
Details: concentrations ≥0.01% (w/w); positive control
Method: Hemolysis assay. Whole human blood containing EDTA (Innovative Resarch IWB1K2E) was centrifuged at 120×g at 4° C., for 5 min and resuspended in Dulbecco's PBS (DPBS: VWR 02-0119-0500). These washing steps were repeated until the supernatant was clear. Red blood cells were then resuspended in DPBS to 5×10^8 cells/mL, and 100 μL of cells was plated into each well of a 96-well clear round-bottom plate. Compounds were added to the indicated concentrations, and DMSO was used as a vehicle. Samples were incubated for 1 h at 37° C., without shaking, after which plates were centrifuged at 1500×g at room temperature for 5 min to pellet cells. 60 μL of the supernatant from each sample was then transferred to a 96-well clear flat-bottom plate, and the absorbance was read at 405 nm using a SpectraMax M3 plate reader to quantify the amount of soluble hemoglobin. Fractional hemolysis was determined by linearly interpolating absorbance values with respect to a positive control (saturation with 10% Triton X-100) and a negative control (1% DMSO vehicle). Results are depicted in FIG. 14.

| Compound | hemolysis |
| --- | --- |
| Triton X-100 [reference compound] | substantial hemolysis |
